Where a chain is given by its changes, count along the chain named.
Columns and labels:
[1] = biological target: T1, Lucilia cuprina LcαE7 (E3) esterase, OP susceptible allele, clone Lc743 (printed Lc473), SEQ ID NO:3 (Lucilia cuprina, UniProt Q25252); assay: Malathion hydrolysis / time-dependent inhibition of the enzyme by malathion; type: biochemical; conditions: in the presence of 4 μM malathion; supernatant of cells expressing the OP susceptible allele
T1 sequence (Q25252 1-570): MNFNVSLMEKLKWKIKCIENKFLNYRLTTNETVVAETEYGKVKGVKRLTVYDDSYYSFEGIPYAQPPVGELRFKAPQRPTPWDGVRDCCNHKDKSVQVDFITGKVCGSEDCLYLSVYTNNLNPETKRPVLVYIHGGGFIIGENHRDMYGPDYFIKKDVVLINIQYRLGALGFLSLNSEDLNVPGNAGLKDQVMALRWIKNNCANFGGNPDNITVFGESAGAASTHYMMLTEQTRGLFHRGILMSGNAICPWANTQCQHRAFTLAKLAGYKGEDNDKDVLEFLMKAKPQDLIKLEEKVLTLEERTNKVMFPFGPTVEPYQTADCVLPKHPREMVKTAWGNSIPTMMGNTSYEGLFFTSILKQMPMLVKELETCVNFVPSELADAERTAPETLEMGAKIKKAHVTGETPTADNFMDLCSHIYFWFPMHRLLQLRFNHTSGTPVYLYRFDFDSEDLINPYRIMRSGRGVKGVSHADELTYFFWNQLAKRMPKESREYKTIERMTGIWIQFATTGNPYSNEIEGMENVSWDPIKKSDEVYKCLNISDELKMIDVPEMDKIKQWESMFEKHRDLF
Protocol: The susceptible (clone Lc743) and resistant (clone Lc7L103D) alleles of LcαE7 were cloned into the baculovirus transfer vector, Bacpac 8 (Clonetech), 3' of the polyhedrin promoter. Transfections were conducted using a lipofection method with polybrene (Sigma) according to King, L. A. & Possee, R. D. (The Baculovirus Expression System: A Laboratory Guide, Chapman & Hall, London, 1992). One μg of DNA of each of the resulting constructs together with 200 ng of Bacpac 6 baculovirus DNA (Clonetech), linearised by digestion with the restriction enzyme BSU 36I (Progema), was incubated in a solution of hepes buffered saline containing 0.5% polybrene (Sigma) at room temperature for 10 minutes. The solution was then used to transfect a single well of a six well tissue culture plate pre-seeded 2 hr previously with 10^4 Sf9 (Spodoptera frugiperda) cells in 1.5 ml Grace's medium (King, L. A. & Possee, R. D, The Baculovirus Expression System: A Laboratory Guide, Chapman & Hall, London, 1992). […]
Initial rates of malathion hydrolysis by the supernatant of cells expressing the OP susceptible allele, […], was 3.3 pmole/min/μl from an initial concentration of 4 μM malathion. […] Malathion hydrolysis (0.5 pmoles/min/μl) was also detected in the supernatant of cells expressing the D. melanogaster homologue, DmaE7.

[2] = biological target: T2, Lucilia cuprina LcαE7 (E3) esterase, OP resistant allele, clone Lc7L103D (Gly to Asp at amino acid position 137) (Lucilia cuprina, UniProt Q25252, form not given/G137D); assay: Radiometric partition assay for OP hydrolysis, enzyme expressed in vitro (baculovirus/Sf9); type: biochemical
T2 sequence (Q25252 1-570 G137D): T1 sequence (Q25252 1-570) with G137D
Protocol: The susceptible (clone Lc743) and resistant (clone Lc7L103D) alleles of LcαE7 were cloned into the baculovirus transfer vector, Bacpac 8 (Clonetech), 3' of the polyhedrin promoter. Transfections were conducted using a lipofection method with polybrene (Sigma) according to King, L. A. & Possee, R. D. (The Baculovirus Expression System: A Laboratory Guide, Chapman & Hall, London, 1992). One μg of DNA of each of the resulting constructs together with 200 ng of Bacpac 6 baculovirus DNA (Clonetech), linearised by digestion with the restriction enzyme BSU 36I (Progema), was incubated in a solution of hepes buffered saline containing 0.5% polybrene (Sigma) at room temperature for 10 minutes. The solution was then used to transfect a single well of a six well tissue culture plate pre-seeded 2 hr previously with 10^4 Sf9 (Spodoptera frugiperda) cells in 1.5 ml Grace's medium (King, L. A. & Possee, R. D, The Baculovirus Expression System: A Laboratory Guide, Chapman & Hall, London, 1992). After 12 hr, the medium was removed, made up to 10% DMSO and placed back over the cells for 5 minutes. This was then replaced with 3 ml of Grace's medium containing 10% fetal calf serum. Construct plus polybrene, linearised virus plus polybrene and polybrene only controls were conducted in parallel with transfections. […]

[3] = system: CFVP hydrolysing enzyme (E3 esterase) in homogenate of OP-resistant L. cuprina strain RM2-6 [der-S]; assay: Radiometric partition assay for OP hydrolysis, whole-fly homogenate; type: biochemical, Lucilia cuprina; conditions: preliminary kinetic experiments
Protocol: Enzyme samples were diluted in 0.1M imidazole-HCl buffer pH 7.0 ("imidazole buffer") to a final volume of 25 μl. Reactions were started by the addition of 25 μl of [^14 C-ethyl]-chlorfenvinphos (CFVP, 306.5 MBq/mmole, Internationale Isotope Munchen) diluted in imidazole buffer from a 7.5 mM stock solution in ethanol. The final chlorfenvinphos concentration was typically 50 or 75 μM for routine assays but can be much lower for the determination of kinetic parameters. The reaction was incubated at 30° C. and stopped by the addition of 300 μl dichloromethane and 150 µl of imidazole buffer containing 10 μM diethylphosphate (Eastman Kodak) followed by vigourous vortex mixing. The reactions were centrifuged to separate phases and 150 μl of the upper, aqueous phase was taken for scintillation counting to determine the amount of ^14 C-diethylphosphate produced by hydrolysis of CFVP. Incubations with boiled enzyme were also performed to control for non-enzymic hydrolysis of CFVP.
(i) Whole-fly homogenates: Assays were carried out on whole-fly homogenates using 50 μM CFVP. […] The boiled control hydrolysed CFVP at a rate of 0.48 pmol/min/mg protein. Homogenates derived from an OP-susceptible strain (LS2) hydrolysed CFVP at the same rate as the boiled control, indicating the absence of CFVP hydrolytic enzymic activity in OP-susceptible L. cuprina.

SMILES | half-life of enzyme inhibition by malathion [1] | Km ([2]; cells expressing the Lc7L103D allele, CFVP hydrolysis, imidazole-HCl pH 7.0, 30° C., preliminary kinetic experiments, read-out: Km of the CFVP hydrolysing enzyme) [µM] | Vmax of CFVP hydrolysis ([2]; cells expressing the OP resistant allele Lc7L103D, pH 7.0, 30° C.) | Km ([3]; RM2-6 homogenate, CFVP hydrolysis, pH 7.0, 30° C.) [µM] | Vmax for the hydrolysis of CFVP ([3]; homogenates of the resistant strain)
CCOC(=O)CC(SP(=S)(OC)OC)C(=O)OCC (centres unmarked) [malathion] | about 20 minutes |  |  |  | 
CCOP(=O)(OCC)OC(=CCl)c1ccc(Cl)cc1Cl [CFVP, chlorfenvinphos] |  | ~16 | approximately 2.0 nmol/min/mg protein | ~16 | approximately 13 pmol/min/mg protein

Source: patent publication US5843758A, “Enzyme based bioremediation” (priority 1994, dated 1998)
